Laboratory results reported in patent US20250346585A1 (Alexion Pharmaceuticals, Inc., priority 2022, published 2025).

molecular target: Human complement C1s enzyme (Homo sapiens (Human), UniProt P09871); assay: Human C1s enzyme assay; assay type: biochemical; details: Human complement C1s enzyme 1.16 nM, substrate Z-L-Lys-SBzl 100 μM, assay of Example 3; read-out: IC50 (Stars)
Method in brief: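 Purified serum-derived human C1s (1.16 nM final) preincubated 5 min at room temperature with compound in 50 mM Tris, 1 M NaCl, pH 7.5. Z-L-Lys-SBzl thioester substrate and DTNB added (100 μM each, final); A405 read every 30 s for 30 min. IC50 from nonlinear regression of reaction rates against compound concentration.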

Sequence of Human complement C1s enzyme (P09871 438-688 limits assumed): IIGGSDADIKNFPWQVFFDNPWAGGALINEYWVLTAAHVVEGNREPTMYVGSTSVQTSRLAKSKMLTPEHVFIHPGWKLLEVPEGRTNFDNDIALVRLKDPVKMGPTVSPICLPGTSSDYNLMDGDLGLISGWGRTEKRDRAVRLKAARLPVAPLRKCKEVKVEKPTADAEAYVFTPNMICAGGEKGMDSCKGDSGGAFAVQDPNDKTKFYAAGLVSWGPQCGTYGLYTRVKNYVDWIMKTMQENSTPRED
Sequence of Human complement C1s enzyme (P09871 16-437 partner limits assumed): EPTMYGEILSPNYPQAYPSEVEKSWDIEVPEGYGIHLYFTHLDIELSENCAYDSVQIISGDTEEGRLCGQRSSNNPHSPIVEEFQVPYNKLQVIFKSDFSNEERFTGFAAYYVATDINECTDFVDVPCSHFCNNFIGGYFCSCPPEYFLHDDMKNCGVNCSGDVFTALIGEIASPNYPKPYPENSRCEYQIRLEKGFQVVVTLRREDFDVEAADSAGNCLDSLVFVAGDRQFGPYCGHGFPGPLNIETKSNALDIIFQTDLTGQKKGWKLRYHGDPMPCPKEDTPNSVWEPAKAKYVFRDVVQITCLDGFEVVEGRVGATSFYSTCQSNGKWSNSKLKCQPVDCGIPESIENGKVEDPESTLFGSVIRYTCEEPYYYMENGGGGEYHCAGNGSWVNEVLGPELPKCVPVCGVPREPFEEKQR

IC50, < 100 nM:
C[C@@H](NC(=O)[C@@H]1CC2(CN1C(=O)CCC(=O)c1ccc(-c3ccccc3)cc1)OCCO2)c1cc(C(=N)N)cs1 [Compound 345, (S)-7-(4-([1,1′-biphenyl]-4-yl)-4-oxobutanoyl)-N—((R)-1-(4-carbamimidoylthiophen-2-yl)ethyl)-1,4-dioxa-7-azaspiro[4.4]nonane-8-carboxamide]
C[C@@H](NC(=O)[C@@H]1CC2(CN1C(=O)CN1Cc3ccc(-c4ccc(F)cc4F)cc3C1=O)OCCO2)c1cc(C(=N)N)cs1 [Compound 346, (S)—N—((R)-1-(4-carbamimidoylthiophen-2-yl)ethyl)-7-(2-(6-(2,4-difluorophenyl)-1-oxoisoindolin-2-yl)acetyl)-1,4-dioxa-7-azaspiro[4.4]nonane-8-carboxamide]
C[C@@H](NC(=O)[C@@H]1CC2(CN1C(=O)CNC(=O)c1ncc(-c3ccccc3)cc1F)OCCO2)c1cc(C(=N)N)cs1 [Compound 347, (S)—N—((R)-1-(4-carbamimidoylthiophen-2-yl)ethyl)-7-((3-fluoro-5-phenylpicolinoyl)glycyl)-1,4-dioxa-7-azaspiro[4.4]nonane-8-carboxamide]
C[C@@H](NC(=O)[C@@H]1C[C@@H](OC(F)F)CN1C(=O)CNC(=O)c1ccc2c(c1)C(C)(C)c1ccccc1-2)c1cc(C(=N)N)cs1 [Compound 348, (2S,4R)-N-((R)-1-(4-carbamimidoylthiophen-2-yl)ethyl)-4-(difluoromethoxy)-1-((9,9-dimethyl-9H-fluorene-2-carbonyl)glycyl) pyrrolidine-2-carboxamide]
C[C@@H](NC(=O)[C@@H]1C[C@](F)(CF)CN1C(=O)CNC(=O)c1ccc2c(c1)sc1ccccc12)c1cc(C(=N)N)cs1 [Compound 349, (2S,4R)—N—((R)-1-(4-carbamimidoylthiophen-2-yl)ethyl)-1-((dibenzo[b,d]thiophene-3-carbonyl)glycyl)-4-fluoro-4-(fluoromethyl)pyrrolidine-2-carboxamide]
COC[C@@]1(F)C[C@@H](C(=O)N[C@H](C)c2cc(C(=N)N)cs2)N(C(=O)CNC(=O)c2ccc3c(c2)S(=O)(=O)c2ccccc2-3)C1 [Compound 350, (2S,4R)—N—((R)-1-(4-carbamimidoylthiophen-2-yl)ethyl)-1-((5,5-dioxidodibenzo[b,d]thiophene-3-carbonyl)glycyl)-4-fluoro-4-(methoxymethyl) pyrrolidine-2-carboxamide]
C[C@@H](NC(=O)[C@@H]1C[C@@H](S(=O)(=O)C2CC2)CN1C(=O)CNC(=O)c1ccc2c(c1)-c1ccccc1C2(F)F)c1cc(C(=N)N)cs1 [Compound 351, (2S,4R)—N—((R)-1-(4-carbamimidoylthiophen-2-yl)ethyl)-4-(cyclopropylsulfonyl)-1-((9,9-difluoro-9H-fluorene-3-carbonyl)glycyl)pyrrolidine-2-carboxamide]
C[C@@H](NC(=O)[C@@H]1C[C@@H](OC(F)F)CN1C(=O)CNC(=O)c1ccc2c(c1)sc1ccccc12)c1cc(C(=N)N)cs1 [Compound 352, (2S,4R)—N—((R)-1-(4-carbamimidoylthiophen-2-yl)ethyl)-1-((dibenzo[b,d]thiophene-3-carbonyl)glycyl)-4-(difluoromethoxy)pyrrolidine-2-carboxamide]
C[C@@H](NC(=O)[C@@H]1C[C@@H](OC(F)F)CN1C(=O)CNC(=O)c1ccc2sc3ccccc3c2c1)c1cc(C(=N)N)cs1 [Compound 353, (2S,4R)—N—((R)-1-(4-carbamimidoylthiophen-2-yl)ethyl)-1-((dibenzo[b,d]thiophene-2-carbonyl)glycyl)-4-(difluoromethoxy)pyrrolidine-2-carboxamide]
C[C@@H](NC(=O)[C@@H]1C[C@](F)(CF)CN1C(=O)CNC(=O)c1ccc2sc3ccccc3c2c1)c1cc(C(=N)N)cs1 [Compound 354, (2S,4R)—N—((R)-1-(4-carbamimidoylthiophen-2-yl)ethyl)-1-((dibenzo[b,d]thiophene-2-carbonyl)glycyl)-4-fluoro-4-(fluoromethyl)pyrrolidine-2-carboxamide]
C[C@@H](NC(=O)[C@@H]1C[C@H](c2cccnc2)CN1C(=O)CNC(=O)c1ccc2c(c1)-c1ccccc1C2(F)F)c1cc(C(=N)N)cs1 [Compound 355, (2S,4R)—N—((R)-1-(4-carbamimidoylthiophen-2-yl)ethyl)-1-((9,9-difluoro-9H-fluorene-3-carbonyl)glycyl)-4-(pyridin-3-yl)pyrrolidine-2-carboxamide]
C[C@@H](NC(=O)[C@@H]1CC2(CN1C(=O)CNC(=O)c1ncc(-c3ccc(F)cc3F)cc1F)OCCO2)c1cc(C(=N)N)cs1 [Compound 356, (S)—N—((R)-1-(4-carbamimidoylthiophen-2-yl)ethyl)-7-((5-(2,4-difluorophenyl)-3-fluoropicolinoyl)glycyl)-1,4-dioxa-7-azaspiro[4.4]nonane-8-carboxamide]
CC1c2ccccc2-c2ccc(C(=O)NCC(=O)N3C[C@H](OC(F)F)C[C@H]3C(=O)N[C@H](C)c3cc(C(=N)N)cs3)cc21 (stereo partly drawn) [Compound 357, (2S,4R)—N—((R)-1-(4-carbamimidoylthiophen-2-yl)ethyl)-4-(difluoromethoxy)-1-((9-methyl-9H-fluorene-2-carbonyl)glycyl)pyrrolidine-2-carboxamide]
C[C@@H](NC(=O)[C@@H]1C[C@H](c2ccccn2)CN1C(=O)CNC(=O)c1ccc2c(c1)-c1ccccc1C2(F)F)c1cc(C(=N)N)cs1 [Compound 358, (2S,4S)—N—((R)-1-(4-carbamimidoylthiophen-2-yl)ethyl)-1-((9,9-difluoro-9H-fluorene-3-carbonyl)glycyl)-4-(pyridin-2-yl)pyrrolidine-2-carboxamide]
COC[C@@]1(F)C[C@@H](C(=O)N[C@H](C)c2cc(C(=N)N)cs2)N(C(=O)CNC(=O)c2ccc3c(c2)oc2ccccc23)C1 [Compound 360, (2S,4R)—N—((R)-1-(4-carbamimidoylthiophen-2-yl)ethyl)-1-((dibenzo[b,d]furan-3-carbonyl)glycyl)-4-fluoro-4-(methoxymethyl)pyrrolidine-2-carboxamide]
C[C@@H](NC(=O)[C@@H]1C[C@@H](OC(F)F)CN1C(=O)CNC(=O)c1ccc2c(c1)oc1ccccc12)c1cc(C(=N)N)cs1 [Compound 361, (2S,4R)—N—((R)-1-(4-carbamimidoylthiophen-2-yl)ethyl)-1-((dibenzo[b,d]furan-3-carbonyl)glycyl)-4-(difluoromethoxy)pyrrolidine-2-carboxamide]
C[C@@H](NC(=O)[C@@H]1C[C@@H](OC(F)F)CN1C(=O)CNC(=O)c1ccc2c(c1)S(=O)(=O)c1ccccc1-2)c1cc(C(=N)N)cs1 [Compound 362, (2S,4R)—N—((R)-1-(4-carbamimidoylthiophen-2-yl)ethyl)-4-(difluoromethoxy)-1-((5,5-dioxidodibenzo[b,d]thiophene-3-carbonyl)glycyl) pyrrolidine-2-carboxamide]
COC[C@@]1(F)C[C@@H](C(=O)N[C@H](C)c2cc(C(=N)N)cs2)N(C(=O)CNC(=O)c2ccc3c(c2)C(C)c2ccccc2-3)C1 (stereo partly drawn) [Compound 363, (2S,4R)—N—((R)-1-(4-carbamimidoylthiophen-2-yl)ethyl)-4-fluoro-4-(methoxymethyl)-1-((9-methyl-9H-fluorene-2-carbonyl)glycyl)pyrrolidine-2-carboxamide]
COC[C@@]1(F)C[C@@H](C(=O)N[C@H](C)c2cc(C(=N)N)cs2)N(C(=O)CNC(=O)c2cccc(-c3ccc(F)cc3)c2)C1 [Compound 364, (2S,4R)—N—((R)-1-(4-carbamimidoylthiophen-2-yl)ethyl)-4-fluoro-1-((4′-fluoro-[1,1′-biphenyl]-3-carbonyl)glycyl)-4-(methoxymethyl)pyrrolidine-2-carboxamide]
C[C@@H](NC(=O)[C@@H]1CC2(CN1C(=O)CN1Cc3cc(-c4ccccc4)ccc3C1=O)OCCO2)c1cc(C(=N)N)cs1 [Compound 365, (S)—N—((R)-1-(4-carbamimidoylthiophen-2-yl)ethyl)-7-(2-(1-oxo-5-phenylisoindolin-2-yl)acetyl)-1,4-dioxa-7-azaspiro[4.4]nonane-8-carboxamide]
C[C@@H](NC(=O)[C@@H]1CC2(CN1C(=O)CN1Cc3cc(-c4ccc(F)cc4F)ccc3C1=O)OCCO2)c1cc(C(=N)N)cs1 [Compound 366]
C[C@@H](NC(=O)[C@@H]1C[C@]2(COCCN(C)C)C[C@@H]2N1C(=O)CNC(=O)c1ccc2c(c1)-c1ccccc1C2(F)F)c1cc(C(=N)N)cs1 [Compound 367, (1S,3S,5R)—N—((R)-1-(4-carbamimidoylthiophen-2-yl)ethyl)-2-((9,9-difluoro-9H-fluorene-3-carbonyl)glycyl)-5-((2-(dimethylamino)ethoxy)methyl)-2-azabicyclo[3.1.0]hexane-3-carboxamide]
C[C@@H](NC(=O)[C@@H]1C[C@](F)(CF)CN1C(=O)CNC(=O)c1ccc2c(c1)C(C)(C)c1ccccc1-2)c1cc(C(=N)N)cs1 [Compound 368, (2S,4R)—N—((R)-1-(4-carbamimidoylthiophen-2-yl)ethyl)-1-((9,9-dimethyl-9H-fluorene-2-carbonyl)glycyl)-4-fluoro-4-(fluoromethyl)pyrrolidine-2-carboxamide]
C[C@@H](NC(=O)[C@@H]1C[C@@H](S(C)(=O)=O)CN1C(=O)CNC(=O)c1ccc2c(c1)C(C)(C)c1ccccc1-2)c1cc(C(=N)N)cs1 [Compound 369, (2S,4R)—N—((R)-1-(4-carbamimidoylthiophen-2-yl)ethyl)-1-((9,9-dimethyl-9H-fluorene-2-carbonyl)glycyl)-4-(methylsulfonyl)pyrrolidine-2-carboxamide]
